# Assays:
# [1] = test system: DBA/1 mouse with collagen-induced rheumatic arthritis; test: Crisis level (clinical index) of collagen-induced rheumatic arthritis; assay type: in vivo
# Procedure: 6 week-old male DBA/1 mouse supplied from Charles River Japan (Japan) was adapted until 8 to 12 week-old and then, used in the experiment. On the first day of the experiment, the mouse was administered subcutaneously with 100 μl of collagen/complete freund's adjuvant at its tail. The collagen/complete freund's adjuvant was prepared by mixing a solution of collagen (bovine type II) dissolved in 0.05 M acetic acid at a concentration of 2 mg/ml with complete freund's adjuvant at the same concentration. At 21st day of the experiment, 100 μg of collagen was intraperitoneally administered and at 28th day of the experiment, 40 μg of lipopolysaccharide was intraperitoneally administered to promote arthritis crisis. The crisis level of rheumatic arthritis was examined with the naked eye and expressed as a clinical index. That is, 0=none, 0.5=flushed and swollen toe, 1=mild crisis, 1.5=moderate crisis, 2 or more=severe crisis and joint stiffness. Four legs of the DBA/1 mouse were examined for their levels of arthritis crisis.
# In order to confirm the therapeutic effect of prodigiosin on rheumatic arthritis, three types of experiments were performed according to the following strategies: (1) 10 mg/kg of prodigiosin was intraperitoneally administered every other day from the 29th day of the experiment, when rheumatic arthritis lesion was developed, to 65th day, the last day of the experiment; (2) 10 mg/kg of prodigiosin was intraperitoneally administered every other day from the 29th day of the experiment, when rheumatic arthritis lesion was developed, to 36th day of the experiment; and (3) 10 mg/kg of prodigiosin was intraperitoneally administered every other day from the 36th day of the experiment, when rheumatic arthritis was in progress, to 65th day, the last day of the experiment.
# (§1) In this example, the DBA/1 mouse with collagen-induced rheumatic arthritis, prepared in Example 1, were administered intraperitoneally with 10 mg/kg of prodigiosin every other day from the 29th day of the experiment to 65th day of the experiment. The DBA/11 mouse treated with prodigiosin according to the above method and the DBA/1 mouse non-treated with prodigiosin were examined for their crisis level of rheumatic arthritis according to time.
# as §1, with “order to investigate the change after suspension of administration of prodigiosin and the influence of prodigiosin on early rheumatic arthritis,” for “this example,”, “36th” for “65th”, “DBA/1” for “DBA/11”, “time. […] Accordingly, it is noted that prodigiosin has effects preventing and treating rheumatic arthritis.” for “time.”
# In order to investigate the influence of prodigiosin on rheumatic arthritis which had developed and progressed, the DBA/1 mouse with collagen-induced rheumatic arthritis, prepared in Example 1, were administered intraperitoneally with 10 mg/kg of prodigiosin every other day from the 36th day to 65th day after starting the experiment. The DBA/1 mouse treated with prodigiosin according to the above method and the DBA/1 mouse non-treated with prodigiosin were examined for their crisis level of rheumatic arthritis according to time.
# [2] = test system: DBA/1 mouse with collagen-induced rheumatic arthritis; test: Laboratory test: hematoxylin and eosin staining of interphalangeal and knee joints; assay type: in vivo; conditions: H&E staining
# Text: The ininter phalangeal joints and knee joints from DBA/1 mouse of the prodigiosin-treated group and the control group, not treated with prodigiosin, in Example 3 were subjected to a laboratory test. The ininter phalangeal joints and knee joints were removed on the last day of the administration and stained with hematoxylin and eosin.
# [3] = test system: cytokines TNF-α, IL-1β, IL-6, IL-12, IL-2, IFN-γ, IL4, IL-10; test: Cytokine expression levels in spleen cells by RT-PCR; assay type: in vivo; conditions: spleen cells of treated DBA/1 mouse, 10 mg/kg i.p. every other day
# Procedure: The spleen cells were removed from DBA/1 mouse of the prodigiosin-treated group and the control group, not treated with prodigiosin, in Example 3 and subjected to RNA separation. Then, the expression levels of cytokine were measured using RT-PCR (Reverse transcriptase polymerase chain reaction). The expression levels of inflammatory cytokines such as TNF-α, IL-1β, IL-6, IL-12; cytokines derived from Th1 cells such as IL-2, IFN-γ; cytokines derived from Th2 cells such as IL4, IL-10 were measured.
# NOD mouse = conditions: cited from earlier work
# B-cell = conditions: cited from earlier work
# [4] = test system: transplantation rejection; conditions: in vivo; cited from earlier work
# animal = conditions: 10 to 30 mg/kg for 16 weeks; cited from earlier work
# T-cell = conditions: cited from earlier work
smiles,measurement,setting,value
CCCCCC1=C/C(=C/c2[nH]c(-c3ccc[nH]3)cc2OC)N=C1C [prodigiosin],crisis level of rheumatic arthritis after suspension of administration,"[1]; 10 mg/kg i.p. every other day from 29th to 36th day, after suspension of administration",about 1
same,crisis level of rheumatic arthritis by the 38th day,"[1]; 10 mg/kg i.p. every other day from 29th to 36th day, by the 38th day",≤ 0.5
same,crisis level of rheumatic arthritis,"[1]; 10 mg/kg i.p. every other day from 29th to 65th day, clinical index 0 to 8 (four legs)",≤ 0.5
same,crisis level of rheumatic arthritis at 36 day,"[1]; 10 mg/kg i.p. every other day from 36th to 65th day, at 36 day (start of administration)",about 2
same,change of crisis level after 36 day,"[1]; 10 mg/kg i.p. every other day from 36th to 65th day, progressive arthritis",no more increase
same,histology of interphalangeal joint and knee joint,"[2]; groups of Example 3 (10 mg/kg i.p., 29th to 36th day)",Normal tissues
same,joint destruction in the knee joint,[2]; groups of Example 3,not observed
same,lymphocyte infiltration into the interphalangeal joint,[2]; groups of Example 3,not observed
same,"expression levels of cytokines (TNF-α, IL-1β, IL-6, IL-12, IL-2, IFN-γ, IL4, IL-10)",[3],reduced the expression levels of all kinds of cytokines
same,diabetes crisis of the NOD mouse,NOD mouse; 10 mg/kg intraperitoneally every other day,completely suppressed
same,insulitis (lymphocyte infiltration into pancreatic islet),NOD mouse; NOD mouse,suppressed insulitis
same,antibody production and proliferation of B-cell,B-cell,does not inhibit
same,effect on transplantation rejection,[4],therapeutic effects
same,toxicity in animal,animal,does not show toxicity
same,proliferation and activity of T-cell,T-cell,strongly inhibit
same,toxicity at a concentration where immunosuppression occurs,T-cell; concentration where immunosuppression occurs,not showing toxicity

# — patent publication US20040127547A1, “Prodigiosin composition for the treatment of rheumatic arthritis” (priority 2001, published 2004)
